Patent publication US6040320A, “2-substituted imidazoles useful in the treatment of inflammatory diseases” (Ortho-McNeil Pharmaceutical, Inc., priority 1998, dated 2000)
Read-outs that look alike come from different tables or passages of the source.

How the values were obtained:
p38 = target: T1, p38 (Homo sapiens, UniProt Q16539); assay: in vitro inhibition of p38 (CPSB): purified recombinant 6xHis-p38, myelin basic protein substrate, 33P-ATP; type: biochemical
T1 construct: 6xHis (N); made in house; host or cells: E. coli
T1 sequence (Q16539 whole entry): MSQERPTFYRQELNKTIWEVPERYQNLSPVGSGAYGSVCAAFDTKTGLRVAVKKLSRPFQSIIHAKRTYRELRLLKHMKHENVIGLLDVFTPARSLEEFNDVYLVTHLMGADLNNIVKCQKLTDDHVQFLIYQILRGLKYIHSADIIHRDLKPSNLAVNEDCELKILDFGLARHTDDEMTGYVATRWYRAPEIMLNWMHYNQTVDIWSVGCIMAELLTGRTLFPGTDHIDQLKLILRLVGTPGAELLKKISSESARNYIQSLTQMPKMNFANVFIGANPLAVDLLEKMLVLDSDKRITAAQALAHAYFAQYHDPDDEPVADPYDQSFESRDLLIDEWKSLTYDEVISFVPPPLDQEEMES
Method: Compounds of the invention were measured for their ability to inhibit the activity of p38 by the following in vitro assay.
A solution (38 μL) of purified recombinant p38 (where the amount of enzyme was determined empirically considering the linear range of the assay and the acceptable signal to noise ratio; 6xHis-p38 expressed in E.coli), myelin basic protein substrate (also determined empirically), a buffer of pH 7.5 (Hepes:25 mM, MgCl2 :10 mM, MnCl2 :10 mM) were added to 92 wells of a 96-well round bottom polypropylene plate. The remaining wells were used for control ("CTRL") and background ("BKG"). The CTRL was prepared with the enzyme, substrate buffer and 2% DMSO, and the BKG was prepared with substrate buffer and 2% DMSO. A solution (12 μL) of the test compound in DMSO (compounds were diluted to 125 μM in 10% DMSO/H2 O and assayed at 25 μM where the final DMSO concentration was 2%) was added to the testing wells. The ATP/^33 P-ATP solution (10 μL: containing 50 μM unlabeled ATP and 1 μCi ^33 P-ATP) was added to all wells and the completed plates were mixed and incubated at 30° C. for 30 min. Icecold 50% TCA/10 mM sodium phosphate (60 μL) were added to each well and the plates were kept on ice for 15 min. The contents of each well were transferred to the wells of a 96-well filterplate (Millipore, MultiScreen-DP) and the filterplate was placed on a vacuum manifold, fitted with a waste collection tray. The wells were washed five times with 10% TCA/10 mM sodium phosphate (200 μL) under vacuum. MicroScint-20 scintillant was added, the plates were sealed using Topseal-S sheets and counted in a Packard TopCount scintillation counter using a ^33 P liquid program with color quench correction, where the output is in color quench-corrected cpm. The % inhibition of the test compounds was calculated by the following formula: % inhibition=[1-(sample-BKG)/(CTRL-BKG)]×100.
Although compounds were initially tested at 25 μM, if warranted the compounds were tested at 4-fold increments above and below that concentration. In addition, lC50 s were calculated for some compounds using the Deltagraph 4-parameter curve fitting program.

TNF-α = assay: in vitro whole cell assay: LPS-stimulated TNF-α production in PBMC (ELISA); type: cell-based, human; conditions: read-out: TNF-α IC50
Method: In addition to the enzyme assay, the compounds of the invention were tested in an in vitro whole cell assay using peripheral blood mononuclear cells ("PBMC") which were obtained from human blood as follows. Freshly obtained venous blood was anticoagulated with heparin, diluted with an equal volume of phosphate buffered saline ("PBS") and placed in a sterile tube or other container. Aliquots (30 mL) of this mixture were transferred to centrifuge tubes which were underlaid with Ficoll-Hypaque (15 mL). The prepared tubes were centrifuged at 400×g without braking for 30 min at room temperature. Approximately 1/2 to 2/3 of the platelet layer above the mononuclear cell band was removed with a pipet. The majority of the mononuclear cell layer was carefully removed using a pipet and these PBMCs were diluted with PBS and spun at 600×g for 15 min. The resulting PBMCs were washed with another portion of PBS and spun at 400×g for 10 min at room temperature. The recovered pellets were diluted in low endotoxin RPMI/1% FCS culture medium and gave a cell concentration of 0.5-2.0 X 10^6 PMBC/mL. A small volume of the suspension was removed for counting on a hemocytometer and the remaining preparation was centrifuged at 200×g for 15 min at room temperature. The recovered pelleted PMBC were resuspended in RPMI/1% FCS to a concentration of 1.67×10^6 /mL.
To run the assay, the PBMC suspension (180 μL) was transferred to duplicate wells of a 96-well flat-bottom microtiter plate and incubated for 1 h at 37° C. A solution of test compound (10 μL: prepared at 20×the desired final concentration) was added to each well and the plate was incubated for 1 h at 37° C. A solution (10 μL) of LPS in RPMI/1% FCS (200 ng/mL) was added and the wells were incubated overnight at 37° C. The supernate (100 μL) was removed from each well and diluted with RPMI/1% FCS (400 μL). The samples were analyzed for TNF-α using a commercial ELISA kit (Genzyme). […] Since imidazoles which are unsubstituted at the 1-position are subject to tautomerization, the substituents listed for R1 and R2 are interchangeable when R3 is hydrogen.

SMILES | IC50 (TNF-α; human PBMC, LPS) [nM] | other results
CCCSc1nc(-c2ccncc2)c(-c2ccc(F)cc2)[nH]1 [Compound 1, 5(4)-(4-Fluorophenyl)2-(1-propyl)thio-4(5)-(4-pyridyl)-5(4)-imidazole] |  | IC50 (p38): 680 nM
O=C1c2ccccc2C(=O)N1CCCSc1nc(-c2ccc(F)cc2)c(-c2ccncc2)[nH]1 [Compound 2, 5(4)-(4-Fluorophenyl)-2-(3-phthalimidoprop-1-yl)thio-4(5)-(4-pyridyl)-imidazole] |  | IC50 (p38): 790 to 1800 nM; IC50 (TNF-α; Homo sapiens, PBMC): 1000 nM
NCCCSc1nc(-c2ccc(F)cc2)c(-c2ccncc2)[nH]1 [Compound 3, 2-(3-Aminoprop-1-yl)thio-5(4)-(4-fluorophenyl)4(5)-(4-pyridyl)-imidazole] |  | CPSB % inhibition (p38; @ 20 μm): 26%
CNC(=O)Sc1nc(-c2ccc(F)cc2)c(-c2ccncc2)[nH]1 [Compound 5, 5(4)-(4-Fluorophenyl)-2-(N-methylaminocarbonyl)thio-4(5)-(4-pyridyl)-imidazole] |  | CPSB % inhibition (p38; @ 20 μm): 81%
C[Si](C)(C)CCOCn1c(C(=O)CCCO)nc(-c2ccncc2)c1-c1ccc(F)cc1 [Compound 9, 4-Hydroxy-1-[5-(4-fluorophenyl)-4-(4-pyridyl)-1-(2-(trimethylsilyl)ethoxymethyl)imidazol-2-yl]butanone] |  | IC50 (TNF-α; Homo sapiens, PBMC): > 10000 nM
OCCSCc1nc(-c2ccncc2)c(-c2ccc(F)cc2)[nH]1 [Compound 13, 5-(4-Fluorophenyl)-2-[4-hydroxy-2-thiabut-1-yl]4-(4-pyridyl)-imidazole] | 80 | 
CC(=O)OCCCCc1nc(-c2ccncc2)c(-c2ccc(F)cc2)[nH]1 [Compound 16a, 4-[5(4)-(4-Fluorophenyl)-(5)-(4-pyridyl)imidazol-2-yl]butayl acetate] |  | IC50 (p38): 1420 nM
CC(=O)OCCCCc1nc(-c2ccncc2)c(-c2ccc(F)cc2)n1C(=O)OCc1ccccc1 [Compound 18] |  | CPSB % inhibition (p38; @ 5 μm): 10%
CCOC(CCSc1nc(-c2ccncc2)c(-c2ccc(F)cc2)[nH]1)OCC [Compound 20] |  | IC50 (p38): 2000 nM
Fc1ccc(-c2[nH]c(S)nc2-c2ccncc2)cc1 [Compound 21] |  | IC50 (p38): 1900 nM
CC(C)Sc1nc(-c2ccncc2)c(-c2ccc(F)cc2)[nH]1 [Compound 22] |  | IC50 (p38): 470 nM
Fc1ccc(-c2[nH]c(SCC3CC3)nc2-c2ccncc2)cc1 [Compound 23] |  | IC50 (p38): 1000 to 1800 nM
O=C(NCCCSc1nc(-c2ccc(F)cc2)c(-c2ccncc2)[nH]1)c1ccc2ccccc2c1 [Compound 31] | 275 | 
CS(=O)(=O)NCCCSc1nc(-c2ccc(F)cc2)c(-c2ccncc2)[nH]1 [Compound 32] | 150 | 
O=C1c2ccccc2C(=O)N1CCSCc1nc(-c2ccc(F)cc2)c(-c2ccncc2)[nH]1 [Compound 33] | 200 | 
CC(=O)NCCCSc1nc(-c2ccc(F)cc2)c(-c2ccncc2)[nH]1 [Compound 34] | 200 | 
CCCSCc1nc(-c2ccc(F)cc2)c(-c2ccncc2)[nH]1 [Compound 35] | 30 | 
C[Si](C)(C)CCOCn1c(CO)nc(-c2ccncc2)c1-c1ccc(F)cc1 [Compound 36] |  | CPSB % inhibition (p38; @ 5 μm): 6%
C=CCSc1nc(-c2ccncc2)c(-c2ccc(F)cc2)[nH]1 [Compound 37] |  | IC50 (p38): 750 nM
N#CCSc1nc(-c2ccncc2)c(-c2ccc(F)cc2)[nH]1 [Compound 38] |  | IC50 (p38): 400 nM
CCSc1nc(-c2ccncc2)c(-c2ccc(F)cc2)[nH]1 [Compound 39] |  | IC50 (p38): 400 nM
CCCCSc1nc(-c2ccncc2)c(-c2ccc(F)cc2)[nH]1 [Compound 40] |  | IC50 (p38): 280 to 700 nM

SMILES | IC50 (TNF-α; human PBMC, LPS) [nM] | other results
CCCCCCCCCCSc1nc(-c2ccc(F)cc2)c(-c2ccncc2)[nH]1 [Compound 41] | > 10000 | 
CC(=O)OCCCCc1nc(-c2ccncc2)c(-c2ccc(F)cc2)n1Cc1ccccc1 [Compound 42] |  | CPSB % inhibition (p38; @ 5 μm): 2%
O=C1c2ccccc2C(=O)N1CCCCc1nc(-c2ccncc2)c(-c2ccc(F)cc2)n1Cc1ccccc1 [Compound 43] |  | CPSB % inhibition (p38; @ 5 μm): 8%
CC(=O)OCCCCc1nc(-c2ccc(F)cc2)c(-c2ccncc2)n1COCC[Si](C)(C)C [Compound 44] |  | IC50 (TNF-α; Homo sapiens, PBMC): 150 nM
O=C1c2ccccc2C(=O)N1CCCCc1nc(-c2ccncc2)c(-c2ccc(F)cc2)[nH]1 [Compound 47] | 283 | 
O=C1c2ccccc2C(=O)N1CCCCc1nc(-c2ccc(F)cc2)c(-c2ccncc2)n1Cc1ccccc1 [Compound 48] | 1750 | 
OCc1nc(-c2ccc(F)cc2)c(-c2ccncc2)[nH]1 [Compound 49] | 250 | 
CC(=O)OCCCCc1nc(-c2ccc(F)cc2)c(-c2ccncc2)n1CCCN1C(=O)c2ccccc2C1=O [Compound 50] | 150 | 
O=C1c2ccccc2C(=O)N1CCCn1c(CCCCO)nc(-c2ccc(F)cc2)c1-c1ccncc1 [Compound 51] | 175 | 
O=C1c2ccccc2C(=O)N1CCCn1c(CCCCO)nc(-c2ccncc2)c1-c1ccc(F)cc1 [Compound 52] | 200 | 
O=C1c2ccccc2C(=O)N1CCCOCc1nc(-c2ccc(F)cc2)c(-c2ccncc2)n1CCCN1C(=O)c2ccccc2C1=O [Compound 53] | 175 | 
O=C1c2ccccc2C(=O)N1CCCOCc1nc(-c2ccncc2)c(-c2ccc(F)cc2)n1CCCN1C(=O)c2ccccc2C1=O [Compound 54] | 200 | 
O=C1c2ccccc2C(=O)N1CCCn1c(CO)nc(-c2ccncc2)c1-c1ccc(F)cc1 [Compound 55] | 1250 | 
CCCS(=O)(=O)Cc1nc(-c2ccncc2)c(-c2ccc(F)cc2)n1COCC[Si](C)(C)C [Compound 57] | 5000 | 
COCc1nc(-c2ccc(F)cc2)c(-c2ccncc2)n1CCCN1C(=O)c2ccccc2C1=O [Compound 58] | 75 | 
COCc1nc(-c2ccncc2)c(-c2ccc(F)cc2)n1CCCN1C(=O)c2ccccc2C1=O [Compound 60] | 400 | 
CCOCCc1nc(-c2ccc(F)cc2)c(-c2ccncc2)n1CCCN1C(=O)c2ccccc2C1=O [Compound 61] | 200 | 
Cc1nc(-c2ccc(F)cc2)c(-c2ccncc2)n1CCCN1C(=O)c2ccccc2C1=O [Compound 62] | 362 | 
Cc1nc(-c2ccncc2)c(-c2ccc(F)cc2)n1CCCN1C(=O)c2ccccc2C1=O [Compound 63] | 17 | 
CCc1nc(-c2ccc(F)cc2)c(-c2ccncc2)n1CCCN1C(=O)c2ccccc2C1=O [Compound 64] | 80 | 
CCc1nc(-c2ccncc2)c(-c2ccc(F)cc2)n1CCCN1C(=O)c2ccccc2C1=O [Compound 65] | 20 | 
CCc1nc(-c2ccc(F)cc2)c(-c2ccncc2)n1CCCc1ccccc1 [Compound 66] | 6 | 

SMILES | IC50 (TNF-α; human PBMC, LPS) [nM] | other results
CCc1nc(-c2ccncc2)c(-c2ccc(F)cc2)n1CCCc1ccccc1 [Compound 67] | 300 | 
Cc1nc(-c2ccc(F)cc2)c(-c2ccncc2)n1CCCc1ccccc1 [Compound 68] | 1.5 | 
Cc1nc(-c2ccncc2)c(-c2ccc(F)cc2)n1CCCc1ccccc1 [Compound 69] | 100 | 
O=C1c2ccccc2C(=O)N1CCCn1cnc(-c2ccncc2)c1-c1ccc(F)cc1 [Compound 70] | 500 | 
O=C1c2ccccc2C(=O)N1CCCn1cnc(-c2ccc(F)cc2)c1-c1ccncc1 [Compound 71] | 39 | 
O=C1c2ccccc2C(=O)N1CCCCn1cnc(-c2ccncc2)c1-c1ccc(F)cc1 [Compound 72] | 300 | 
O=C1c2ccccc2C(=O)N1CCCCn1cnc(-c2ccc(F)cc2)c1-c1ccncc1 [Compound 73] | 500 | 
Fc1ccc(-c2nc(Br)n(CCCc3ccccc3)c2-c2ccncc2)cc1 [Compound 74] | 200 | 
Fc1ccc(-c2nc(I)n(CCCc3ccccc3)c2-c2ccncc2)cc1 [Compound 75] | 3 | 
O=C1c2ccccc2C(=O)N1CCCCn1c(I)nc(-c2ccncc2)c1-c1ccc(F)cc1 [Compound 76] | 800 | 
O=C1c2ccccc2C(=O)N1CCCCn1c(I)nc(-c2ccc(F)cc2)c1-c1ccncc1 [Compound 77] | 445 | 
CCCCc1cc(-c2c(-c3ccc(F)cc3)nc(CO)n2CCCc2ccccc2)ccn1 [Compound 78] | 450 | 
CCC(=O)Cn1cnc(-c2ccncc2)c1-c1ccc(F)cc1 [Compound 79] | 600 | 
CCC(=O)Cn1cnc(-c2ccc(F)cc2)c1-c1ccncc1 [Compound 80] | 200 | 
Fc1ccc(-c2c(-c3ccncc3)ncn2CCCc2cccnc2)cc1 [Compound 81] | 500 | 
Fc1ccc(-c2ncn(CCCc3cccnc3)c2-c2ccncc2)cc1 [Compound 82] | 20 | 
Fc1ccc(-c2c(-c3ccncc3)ncn2CCCc2ccncc2)cc1 [Compound 83] | 1000 | 
Fc1ccc(-c2ncn(CCCc3ccncc3)c2-c2ccncc2)cc1 [Compound 84] | 10 | 
Fc1ccc(-c2c(-c3ccncc3)ncn2CCOc2ccccc2)cc1 [Compound 85] | 2000 | 
Fc1ccc(-c2ncn(CCOc3ccccc3)c2-c2ccncc2)cc1 [Compound 86] | 40 | 
